≈ marks a conversion by molar mass, not a printed value.
Assays:
Staphylococcus sp. = test: (§1) Antibacterial activity against MRCNS; format: functional
Enterococcus faecium = test: Antibacterial activity against MDREFm; format: functional
Streptococcus pneumoniae = test: Antibacterial activity against PRSP; format: functional
MecA = molecular target: T1, MecA (Staphylococcus aureus, UniProt Q7DHH4); test: Compound was tested for its binding affinity towards Penicillin-binding protein 2a (PBP2a) using […]-benzylpenicillin
T1 sequence (Q7DHH4 whole entry): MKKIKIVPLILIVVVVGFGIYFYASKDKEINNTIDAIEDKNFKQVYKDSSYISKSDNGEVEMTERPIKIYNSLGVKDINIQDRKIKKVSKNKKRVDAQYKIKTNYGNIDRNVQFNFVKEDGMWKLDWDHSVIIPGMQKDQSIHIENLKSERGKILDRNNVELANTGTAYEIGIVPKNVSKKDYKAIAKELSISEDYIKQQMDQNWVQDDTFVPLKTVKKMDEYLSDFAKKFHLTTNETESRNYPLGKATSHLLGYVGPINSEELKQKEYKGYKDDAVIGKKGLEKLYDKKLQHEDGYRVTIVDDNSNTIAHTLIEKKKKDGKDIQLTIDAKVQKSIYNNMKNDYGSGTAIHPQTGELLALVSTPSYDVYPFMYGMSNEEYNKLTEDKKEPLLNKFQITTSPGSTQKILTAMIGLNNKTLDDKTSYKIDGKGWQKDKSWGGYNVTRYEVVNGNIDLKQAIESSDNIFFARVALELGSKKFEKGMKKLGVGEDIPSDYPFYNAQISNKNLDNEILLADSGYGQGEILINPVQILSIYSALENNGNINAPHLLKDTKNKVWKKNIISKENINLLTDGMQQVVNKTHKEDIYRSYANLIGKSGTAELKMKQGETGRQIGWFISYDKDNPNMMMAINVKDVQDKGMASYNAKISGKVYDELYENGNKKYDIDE

Staphylococcus aureus [1] = test: Antibacterial activity against MRSA; format: functional
Staphylococcus aureus [2] = test: Antibacterial activity against MRSA strain COL; format: functional
Enterococcus faecalis = test: Antibacterial activity against VREFs; format: functional
Staphylococcus aureus [3] = test: Antibacterial activity against for MRSA strain COL; format: functional
Staphylococcus = test: as §1; format: functional

MIC (Staphylococcus aureus [2])	MIC (Staphylococcus aureus [3])	MIC (Staphylococcus)	Structure (SMILES)	MIC (Staphylococcus sp.)	MIC (Enterococcus faecium)	MIC (Streptococcus pneumoniae)	IC50 (MecA)	MIC (Staphylococcus aureus [1])	MIC (Enterococcus faecalis)
64 µg/mL	–	–	C[C@@H](O)[C@H]1C(=O)N2C(C(=O)[O-])=C(CN3Cc4ccccc4S3(=O)=O)[C@H](C)[C@H]12.[Na+]	–	–	–	–	–	–
–	> 64 µg/mL	–	C[C@@H](O)[C@H]1C(=O)N2C(C(=O)[O-])=C(CN(c3cccc4ccccc34)S(C)(=O)=O)[C@H](C)[C@H]12.[Na+]	–	–	–	–	–	–
64 µg/mL	–	–	C[C@@H](O)[C@H]1C(=O)N2C(C(=O)[O-])=C(CN(c3ccccc3)S(=O)(=O)c3ccccc3)[C@H](C)[C@H]12.[Na+]	–	–	–	–	–	–
16 µg/mL	–	–	C[C@@H](O)[C@H]1C(=O)N2C(C(=O)[O-])=C(CN3C(=O)c4ccccc4S3(=O)=O)[C@H](C)[C@H]12.[Na+]	–	–	–	–	–	–
32 µg/mL	–	21.1 µg/mL	C[C@@H](O)[C@H]1C(=O)N2C(C(=O)[O-])=C(CN3C(=O)c4cccc5cccc3c45)[C@H](C)[C@H]12.[Na+]	–	64 µg/mL	4 µg/mL	–	12 µg/mL	64 µg/mL
16 µg/mL	–	–	C[C@@H](O)[C@H]1C(=O)N2C(C(=O)[O-])=C(CN3c4ccccc4CS3(=O)=O)[C@H](C)[C@H]12.[Na+]	–	–	–	–	–	–
> 64 µg/mL	–	–	C[C@@H](O)[C@H]1C(=O)N2C(C(=O)[O-])=C(CN(c3cccc4c3-c3ccccc3C4=O)S(C)(=O)=O)[C@H](C)[C@H]12.[Na+]	–	–	–	–	–	–
2 µg/mL	–	–	C[C@@H](O)[C@H]1C(=O)N2C(C(=O)[O-])=C(CN3c4cccc5cccc(c45)S3(=O)=O)[C@H](C)[C@H]12.[Na+]	–	–	–	–	–	–
8 µg/mL	–	–	C[C@@H](O)[C@H]1C(=O)N2C(C(=O)[O-])=C(CN3c4ccccc4-c4ccccc4S3(=O)=O)[C@H](C)[C@H]12.[Na+]	–	–	–	–	–	–
64 µg/mL	–	–	C[C@@H](O)[C@H]1C(=O)N2C(C(=O)[O-])=C(CN(c3ccc4ccccc4c3)S(=O)(=O)c3ccccc3)[C@H](C)[C@H]12.[Na+]	–	–	–	–	–	–
64 µg/mL	–	–	C[C@@H](O)[C@H]1C(=O)N2C(C(=O)[O-])=C(CN(c3ccccc3)S(=O)(=O)c3ccc4ccccc4c3)[C@H](C)[C@H]12.[Na+]	–	–	–	–	–	–
> 64 µg/mL	–	–	C[C@@H](O)[C@H]1C(=O)N2C(C(=O)[O-])=C(CN(c3ccc4ccccc4c3)S(C)(=O)=O)[C@H](C)[C@H]12.[Na+]	–	–	–	–	–	–
–	–	–	C[C@@H](O)[C@H]1C(=O)N2C(C(=O)O)=C(SCCNC=N)C[C@H]12 [IMIPENEM ANHYDROUS]	> 64 µg/mL	> 64 µg/mL	0.25 µg/mL (≈ 0.835 µM)	628 µM	> 40 µg/mL	8 µg/mL (≈ 26.7 µM)
–	–	–	CN[C@H](CC(C)C)C(=O)N[C@H]1C(=O)N[C@@H](CC(N)=O)C(=O)N[C@H]2C(=O)N[C@H]3C(=O)N[C@H](C(=O)N[C@H](C(=O)O)c4cc(O)cc(O)c4-c4cc3ccc4O)[C@H](O)c3ccc(c(Cl)c3)Oc3cc2cc(c3O[C@@H]2O[C@H](CO)[C@@H](O)[C@H](O)[C@H]2O[C@H]2C[C@](C)(N)[C@H](O)[C@H](C)O2)Oc2ccc(cc2Cl)[C@H]1O [VANCOMYCIN]	1.7 µg/mL (≈ 1.17 µM)	20.2 µg/mL (≈ 13.9 µM)	0.35 µg/mL (≈ 0.242 µM)	–	0.9 µg/mL (≈ 0.621 µM)	> 64 µg/mL

Structure (SMILES)	MIC (Staphylococcus aureus [2])	MIC (Staphylococcus aureus [3])	MIC (Staphylococcus)	MIC (Staphylococcus sp.)	MIC (Enterococcus faecium)	MIC (Streptococcus pneumoniae)	IC50 (MecA)	MIC (Staphylococcus aureus [1])	MIC (Enterococcus faecalis)
C[C@@H](O)[C@H]1C(=O)N2C(C(=O)[O-])=C(CN3Cc4c(ccc5ccccc45)S3(=O)=O)[C@H](C)[C@H]12.[Na+]	8 µg/mL	–	–	10.6 µg/mL	50.8 µg/mL	0.17 µg/mL	38.1 µM	3.4 µg/mL	8 µg/mL
C[C@@H](O)[C@H]1C(=O)N2C(C(=O)[O-])=C(CN3Cc4cccc5cccc(c45)S3(=O)=O)[C@H](C)[C@H]12.[Na+]	16 µg/mL	–	–	16 µg/mL	40.3 µg/mL	0.12 µg/mL	46.9 µM	8.5 µg/mL	8 µg/mL
C[C@@H](O)[C@H]1C(=O)N2C(C(=O)[O-])=C(CN3C(=O)c4cccc5cccc(c45)S3(=O)=O)[C@H](C)[C@H]12.[Na+]	8 µg/mL	–	–	8 µg/mL	32 µg/mL	0.25 µg/mL	5.02 µM	4 µg/mL	8 µg/mL
C[C@@H](O)[C@H]1C(=O)N2C(C(=O)[O-])=C(CN3c4cccc5cccc(c45)N(C)S3(=O)=O)[C@H](C)[C@H]12.[Na+]	4 µg/mL	–	–	7 µg/mL	64 µg/mL	1 µg/mL	14.8 µM	1.5 µg/mL	64 µg/mL
C[C@@H](O)[C@H]1C(=O)N2C(C(=O)[O-])=C(CN3C(=O)c4cccc5cccc(c45)C3=O)[C@H](C)[C@H]12.[Na+]	32 µg/mL	–	–	24.3 µg/mL	64 µg/mL	1.4 µg/mL	3.16 µM	12 µg/mL	24.3 µg/mL
C[C@@H](O)[C@H]1C(=O)N2C(C(=O)[O-])=C(CN3C(=O)c4c(ccc5ccccc45)S3(=O)=O)[C@H](C)[C@H]12.[Na+]	4 µg/mL	–	–	5.3 µg/mL	20.2 µg/mL	0.25 µg/mL	3.34 µM	1.3 µg/mL	8 µg/mL
